From paper PMC11110727, “Exploiting thiol-functionalized benzosiloxaboroles for achieving diverse substitution patterns – synthesis, characterization and biological evaluation of promising antibacterial agents” (RSC Medicinal Chemistry, 2024)
In brackets after ≈: the same amount, converted by molar mass. Read-outs that look alike come from different tables or passages of the source.

Experiments:
Gram-negative rods = assay: Antibacterial activity against Gram-negative rods with or without PAβN (text summaries); assay type: cell-based; settings: for efflux assay result (MIC with PAβN): Gram-negative rods; for reduction of MIC in the presence of PAβN: Enterobacterales
Method: Direct antimicrobial activity was determined against the following standard strains: (1) Gram-positive cocci: methicillin-sensitive Staphylococcus aureus ATCC 6538P (MSSA), methicillin-resistant S. aureus subsp. aureus ATCC 43300 (MRSA), S. epidermidis ATCC 12228, Enterococcus faecium ATCC 6057, E. faecalis ATCC 29212, Bacillus subtilis ATCC 6633; (2) Gram-negative bacteria from Enterobacteriales order: Klebsiella pneumoniae ATCC 13883, Escherichia coli ATCC 25922, Enterobacter cloacae DSM 6234, Proteus mirabilis ATCC 12453, Serratia marcescens ATCC 13880; (3) Gram-negative non-fermentative rods: Acinetobacter baumannii ATCC 19606, Pseudomonas aeruginosa ATCC 27853, Stenotrophomonas maltophilia ATCC 12714, S. maltophilia ATCC 13637, Burkholderia cepacia ATCC 25416, Bordetella bronchiseptica ATCC 4617; (4) yeasts: Candida albicans ATCC 90028, C. krusei ATCC 6258, C. parapsilosis ATCC 22019, C. tropicalis (Castellani) Berkhout ATCC 750, C. tropicalis IBA 171, C. guilliermondii IBA 155, and Saccharomyces cerevisiae ATCC 9763. Moreover, 5 clinical strains of methicillin-resistant S. aureus were also included: NMI 664 K, NMI 1576 K, NMI 1712 K, NMI 1991 K, and NMI 2541 K. All strains were stored at −80 °C. Prior to testing, each bacterial strain was subcultured twice on tryptic soy agar TSA (bioMerieux) medium and yeast strains on Sabouraud dextrose agar (bioMerieux) for 24–48 h at 30 °C to ensure viability. The antimicrobial activity was evaluated as previously described[26] by the disc-diffusion method and the MIC determination assays according to the EUCAST (ref. [71] and [72]) and CLSI (ref. [53] and [73]) recommendations. Assessment of bactericidal (MBC) and fungicidal (MFC) activities was performed according to the CLSI recommendations.[54,74] […] The new benzosiloxaboroles were dissolved in DMSO (Sigma).
Considering that the MDR efflux pumps often contribute to Gram-negative rod resistance, the MIC values of studied agents, with or without the pump inhibitor, PAβN (20 μg mL^−1) (Sigma), were determined.[75] The MIC was determined using Mueller–Hinton II broth medium (MHB) (Becton Dickinson) by the broth microdilution method, according to the CLSI guideliness.[53] To minimize the influence of PAβN on the destabilization of bacterial cell covers, the tests were conducted in the presence of 1 mM MgSO4 (Sigma).[76] At least a 4-fold reduction in the MIC value after the addition of PAβN was considered significant.[56,77]

[1] = system: S. aureus NMI 1991 K MRSA; assay: Antibacterial activity against clinical MRSA: MIC/MBC; assay type: cell-based; settings: Staphylococcus aureus
Summary of the method: (§1)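 Inhibitory and cidal concentrations (MIC; MBC/MFC) were measured following CLSI, with EUCAST also applied to MIC and disc-diffusion testing. Each strain was revived from −80 °C stocks by two passages at 30 °C for 24–48 h.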

[2] = system: S. aureus NMI 1712 K MRSA; assay: as above; assay type: cell-based; settings: Staphylococcus aureus
Summary of the method: as §1

[3] = system: S. aureus NMI 1576 K MRSA; assay: as above; assay type: cell-based; settings: Staphylococcus aureus
Summary of the method: as §1

[4] = system: S. aureus NMI 2541 K MRSA; assay: as above; assay type: cell-based; settings: Staphylococcus aureus
Summary of the method: as §1

physchem = assay: physchem
Method: 0.1 M NaOH in H2O/MeOH (1 : 1 v/v).
The acidity constants of benzosiloxaboroles 1e, 2e, 6, 20 and 22–24 were determined by standard pH titration with 0.05 M aq. NaOH. The measurements were performed using a thermostated (25.0 °C) glass vessel equipped with a magnetic stirrer and a 10 mL burette. Prior to the measurement, the pH glass electrode was calibrated using borax and phosphate buffers. A solution of the analyzed compound (ca. 20–40 mg) in a mixture of MeOH/H2O (v/v 1 : 1, 30 mL) was titrated until the pH of the solution exceeded the value of 12.0.

[5] = NMI 1991 K MRSA, read-out: MBC (first MBC where Eagle effect)
[6] = NMI 1991 K MRSA, read-out: second MBC (Eagle effect)
[7] = NMI 1712 K MRSA, read-out: MBC (first MBC where Eagle effect)
[8] = NMI 1712 K MRSA, read-out: second MBC (Eagle effect)
[9] = NMI 1576 K MRSA, read-out: MBC (first MBC where Eagle effect)
[10] = NMI 1576 K MRSA, read-out: second MBC (Eagle effect)
[11] = NMI 2541 K MRSA, read-out: MBC (first MBC where Eagle effect)
[12] = NMI 2541 K MRSA, read-out: second MBC (Eagle effect)
[13] = MRSA, read-out: MBC (first MBC where Eagle effect)
[14] = MRSA, read-out: second MBC (Eagle effect)

| Compound | efflux assay result (MIC with PAβN) (Gram-negative rods) | MBC [1, 5] [mg/L] | MIC ([1]; NMI 1991 K MRSA, read-out: MIC) [mg/L] | MBC [1, 6] [mg/L] | MBC [2, 7] [mg/L] | MIC ([2]; NMI 1712 K MRSA, read-out: MIC) [mg/L] | MBC [2, 8] [mg/L] | MBC [3, 9] [mg/L] | MIC ([3]; NMI 1576 K MRSA, read-out: MIC) [mg/L] | MBC [3, 10] [mg/L] | MBC [4, 11] [mg/L] | MIC ([4]; NMI 2541 K MRSA, read-out: MIC) [mg/L] | MBC [4, 12] [mg/L] | pKa (physchem) | other results |
| --- | --- | --- | --- | --- | --- | --- | --- | --- | --- | --- | --- | --- | --- | --- | --- |
| COC(=O)CCSc1ccc2c(c1F)[Si](C)(C)OB2O [Compound 4, Methyl 3-((7-fluoro-3-hydroxy-1,1-dimethyl-1,3-dihydrobenzo[c][1,2,5]oxasilaborol-6-yl)thio)propanoate] | actively extruded from bacterial cells |  |  |  |  |  |  |  |  |  |  |  |  |  |  |
| C[Si]1(C)OB(O)c2cc(F)c(SCCC#N)c(F)c21 [Compound 6, 3-((5,7-Difluoro-3-hydroxy-1,1-dimethyl-1,3-dihydrobenzo[c][1,2,5]oxasilaborol-6-yl)thio)propanenitrile] |  | 25 (≈ 83.6 µM) | 12.5 (≈ 41.8 µM) | > 400 | 12.5 (≈ 41.8 µM) | 12.5 (≈ 41.8 µM) | > 400 | 25 (≈ 83.6 µM) | 12.5 (≈ 41.8 µM) | > 400 | 25 (≈ 83.6 µM) | 12.5 (≈ 41.8 µM) | > 400 | 5.2 |  |
| C[Si]1(C)OB(O)c2cc(F)c(SC3CC(=O)NC3=O)c(F)c21 (stereo not shown) [Compound 12, 3-((5,7-Difluoro-3-hydroxy-1,1-dimethyl-1,3-dihydrobenzo[c][1,2,5]oxasilaborol-6-yl)thio)pyrrolidine-2,5-dione] |  | 100 (≈ 291 µM) | 12.5 (≈ 36.4 µM) |  | 200 (≈ 583 µM) | 12.5 (≈ 36.4 µM) |  | 100 (≈ 291 µM) | 6.25 (≈ 18.2 µM) |  | 200 (≈ 583 µM) | 12.5 (≈ 36.4 µM) |  |  | reduction of MIC in the presence of PAβN (Gram-negative rods): at least 4 -fold |
| C[Si]1(C)OB(O)c2ccc(SC3CC(=O)NC3=O)c(F)c21 (stereo not shown) [Compound 13, 3-((7-Fluoro-3-hydroxy-1,1-dimethyl-1,3-dihydrobenzo[c][1,2,5]oxasilaborol-6-yl)thio)pyrrolidine-2,5-dione] |  |  |  |  |  |  |  |  |  |  |  |  |  |  | reduction of MIC in the presence of PAβN (Gram-negative rods): at least 4 -fold |
| C[Si]1(C)OB(O)c2cc(F)c(SCCS(=O)(=O)c3ccccc3)c(F)c21 [Compound 20, 5,7-Difluoro-1,1-dimethyl-6-((2-(phenylsulfonyl)ethyl)thio)benzo[c][1,2,5]oxasilaborol-3(1H)-ol] | actively extruded from bacterial cells | 12.5 (≈ 30.2 µM) | 6.25 (≈ 15.1 µM) | 400 (≈ 965 µM) | 12.5 (≈ 30.2 µM) | 6.25 (≈ 15.1 µM) | 400 (≈ 965 µM) | 12.5 (≈ 30.2 µM) | 6.25 (≈ 15.1 µM) | 400 (≈ 965 µM) | 25 (≈ 60.3 µM) | 6.25 (≈ 15.1 µM) | 400 (≈ 965 µM) |  | pKa (physchem; MeOH/H2O (1:1 v/v) solution): 5.7 |
| C[Si]1(C)OB(O)c2ccc(SCCS(=O)(=O)c3ccccc3)c(F)c21 [Compound 21, 7-Fluoro-1,1-dimethyl-6-((2-(phenylsulfonyl)ethyl)thio)benzo[c][1,2,5]oxasilaborol-3(1H)-ol] | actively extruded from bacterial cells |  |  |  |  |  |  |  |  |  |  |  |  |  |  |
| CC(=O)CSc1ccc2c(c1F)[Si](C)(C)OB2O [Compound 22, 1-((7-Fluoro-3-hydroxy-1,1-dimethyl-1,3-dihydrobenzo[c][1,2,5]oxasilaborol-6-yl)thio)propan-2-one] |  | 200 (≈ 704 µM) | 3.12 (≈ 11 µM) |  | 400 (≈ 1410 µM) | 6.25 (≈ 22 µM) |  | 200 (≈ 704 µM) | 6.25 (≈ 22 µM) |  | 200 (≈ 704 µM) | 3.12 (≈ 11 µM) |  | 6.4 |  |
| C[Si]1(C)OB(O)c2ccc(SCC(=O)c3ccccc3)c(F)c21 [Compound 23, 2-((7-Fluoro-3-hydroxy-1,1-dimethyl-1,3-dihydrobenzo[c][1,2,5]oxasilaborol-6-yl)thio)-1-phenylethan-1-one] |  | 3.12 (≈ 9.01 µM) | 1.56 (≈ 4.51 µM) | 200 (≈ 578 µM) | 25 (≈ 72.2 µM) | 3.12 (≈ 9.01 µM) | 200 (≈ 578 µM) | 6.25 (≈ 18 µM) | 3.12 (≈ 9.01 µM) | 100 (≈ 289 µM) | 6.25 (≈ 18 µM) | 1.56 (≈ 4.51 µM) | 200 (≈ 578 µM) | 6.3 |  |
| CCOP(=O)(OCC)Sc1c(F)cc2c(c1F)[Si](C)(C)OB2O [Compound 24, S-(5,7-Difluoro-3-hydroxy-1,1-dimethyl-1,3-dihydrobenzo[c][1,2,5]oxasilaborol-6-yl) O,O-diethyl phosphorothioate] |  |  |  |  |  |  |  |  |  |  |  |  |  | 4.9 | MIC ([1]; MRSA): 12.5 mg/L (≈ 32.7 µM); MBC [1, 13]: 12.5 mg/L (≈ 32.7 µM); MBC [1, 14]: > 400 mg/L; MIC ([2]; MRSA): 12.5 mg/L (≈ 32.7 µM); MBC [2, 13]: 25 mg/L (≈ 65.4 µM); MBC [2, 14]: > 400 mg/L; MIC ([3]; MRSA): 6.25 mg/L (≈ 16.4 µM); MBC [3, 13]: 12.5 mg/L (≈ 32.7 µM); MBC [3, 14]: 400 mg/L (≈ 1050 µM); MIC ([4]; MRSA): 12.5 mg/L (≈ 32.7 µM); MBC [4, 13]: 12.5 mg/L (≈ 32.7 µM); MBC [4, 14]: > 400 mg/L |
| C[Si]1(C)OB(O)c2ccc(SC(=O)c3ccc(C(F)(F)F)cc3)c(F)c21 [Compound 25, S-(7-Fluoro-3-hydroxy-1,1-dimethyl-1,3-dihydrobenzo[c][1,2,5]oxasilaborol-6-yl) 4-(trifluoromethyl)benzothioate] |  | 50 (≈ 125 µM) | 25 (≈ 62.5 µM) |  | 25 (≈ 62.5 µM) | 12.5 (≈ 31.2 µM) |  | 50 (≈ 125 µM) | 25 (≈ 62.5 µM) |  | 25 (≈ 62.5 µM) | 12.5 (≈ 31.2 µM) |  |  |  |
